Data: article PMC9233675, “Ru(II) photocages enable precise control over enzyme activity with red light” (Nature Communications, 2022)
Numbering of substitutions follows the chain as printed.

Tests used:
CYP1B1 S127A = molecular target: T1, CYP1B1 S127A (Homo sapiens, UniProt Q16678, S127A)
T1 sequence (Q16678 1-543 S127A): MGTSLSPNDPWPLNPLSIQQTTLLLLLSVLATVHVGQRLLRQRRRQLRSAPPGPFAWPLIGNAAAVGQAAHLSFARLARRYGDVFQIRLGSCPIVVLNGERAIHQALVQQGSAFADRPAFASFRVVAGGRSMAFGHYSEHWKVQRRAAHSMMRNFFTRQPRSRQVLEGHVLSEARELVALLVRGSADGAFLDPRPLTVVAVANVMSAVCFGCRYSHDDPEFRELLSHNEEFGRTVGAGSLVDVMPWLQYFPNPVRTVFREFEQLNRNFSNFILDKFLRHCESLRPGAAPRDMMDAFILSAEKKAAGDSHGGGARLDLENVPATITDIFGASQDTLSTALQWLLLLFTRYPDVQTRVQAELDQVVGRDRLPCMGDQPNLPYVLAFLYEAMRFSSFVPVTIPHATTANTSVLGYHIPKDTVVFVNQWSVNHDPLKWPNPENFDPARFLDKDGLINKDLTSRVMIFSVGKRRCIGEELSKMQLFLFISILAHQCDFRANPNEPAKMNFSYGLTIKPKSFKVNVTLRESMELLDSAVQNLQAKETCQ
From the text: (§1) Site directed mutagenesis was used to probe the importance of specific active-site contacts identified through the structural assessment (Fig. 3a, b) and simulations. In all cases, conservative mutations were made to maintain polar or hydrophobic character and approximate size. The aromatic residues that frame the inhibitor binding site, Phe143 and Phe231, were mutated to Leu to determine the importance of the π interactions. In addition, the Ser127 residue, located in the upper corner of the active site on the B-C loop, was chosen for mutation based on the simulations. This amino acid transiently contacts the inhibitors, but also forms a hydrogen bond with Asp326 of the I-helix, and thus may impact the position of this helix with regards to the B-C loop. […] Rather than directly mutating these residues in the I-helix, neighboring residues Gln332 and Asp333 were targeted, with the hope of interrupting amino acid interactions that position the helix within the active site.
(§2) The ratio of IC50 values for the WT vs. the mutant are shown in Fig. 3c and reflects the importance of the specific contact; the log of the value is used to aid in visualization.
(§3) Cell lines were seeded onto Geltrex coated 96-well plates at 40,000 cells/well, and grown overnight in DMEM media containing 1 μg/mL tetracycline. The media was then replaced with Opti-MEM supplemented with 2% FBS and 1 μg/mL tetracycline. Compounds were serially diluted in Opti-MEM supplemented with 2% FBS and 1 μg/mL tetracycline and an equal volume of compound added to the cells (n = 3). Following a 1 h incubation, resorufin ethyl ether (REE; for CYP1B1 and 1A1) or dibenzylfluorescein (DBF; for 19A1) was added to the cells for a total concentration of 5 μM for REE and 1 μM for DBF. […] Dose–response curves were generated in Prism and normalized using the no-compound control (set as 100% activity) and the no-cell control (set as 0% activity; this value in the raw data reflects the background fluorescence of the dye alone).

CYP1B1 Q332E = molecular target: T2, CYP1B1 Q332E (Homo sapiens, UniProt Q16678, Q332E)
T2 sequence (Q16678 1-543 Q332E): T1 sequence (Q16678 1-543 S127A) with A127S, Q332E
From the text: as §1, §2, §3

CYP1B1 D333N = molecular target: T3, CYP1B1 D333N (Homo sapiens, UniProt Q16678, D333N)
T3 sequence (Q16678 1-543 D333N): T1 sequence (Q16678 1-543 S127A) with A127S, D333N
From the text: as §1, §2, §3

CYP1B1 F134L = molecular target: T4, CYP1B1 F134L (Homo sapiens, UniProt Q16678, F134L)
T4 sequence (Q16678 1-543 F134L): T1 sequence (Q16678 1-543 S127A) with A127S, F134L
From the text: as §1, §2, §3

CYP1B1 S269A = molecular target: T5, CYP1B1 S269A (Homo sapiens, UniProt Q16678, S269A)
T5 sequence (Q16678 1-543 S269A): T1 sequence (Q16678 1-543 S127A) with A127S, S269A
From the text: as §1, §2, §3

## O=c1cc(-c2ccccc2)oc2c1ccc1ccccc12 [ANF, α-naphthoflavone]
CYP1B1 S127A
  logSI S127A: -1.15
CYP1B1 Q332E
  logSI Q332E: 0.906
CYP1B1 D333N
  logSI D333N: 1.497
CYP1B1 F134L
  logSI F134L: -0.301
CYP1B1 S269A
  logSI S269A: 0
